Assay results taken from PMC5781198 (Influenza and Other Respiratory Viruses, 2013).

Columns and labels:
[1] = test system: influenza B viruses, neuraminidase (NA); assay type: biochemical, Influenza B virus
[2] = test system: influenza A(H1N1)pdm09 viruses, neuraminidase (NA); assay type: biochemical, Influenza A(H1N1)pdm09 virus
[3] = test system: influenza B Victoria lineage viruses, neuraminidase (NA); assay type: biochemical, Influenza B virus (Victoria lineage)
[4] = test system: influenza A(H3N2) viruses, neuraminidase (NA); assay type: biochemical, Influenza A(H3N2) virus
[5] = test system: A/Puerto Rico/34/2011 NA (D151D/G/N); assay type: biochemical, Influenza A(H3N2) virus

| Structure (SMILES) | susceptibility in words [1] | IC50 of outliers relative to the mean IC50 for the drug [2] | susceptibility in words [2] | susceptibility of A(H1N1)pdm09 viruses compared with A(H3N2) viruses [2] | difference in IC50 between Victoria and Yamagata lineage viruses [3] | IC50 of outliers relative to the mean IC50 for the drug [4] | susceptibility in words [4] | fold difference in IC50 [5] | sensitivity compared with the other three NAIs [2] | sensitivity compared with zanamivir and laninamivir [4] |
| --- | --- | --- | --- | --- | --- | --- | --- | --- | --- | --- |
| [H]/N=C(\N)N[C@H]1C=C(C(=O)O)O[C@@H]([C@H](OC)[C@H](O)CO)[C@@H]1NC(C)=O [Laninamivir, laninamivir] | showed sensitivity to the drug | approximately twofold more | showed sensitivity to the drug | approximately twofold more sensitive | no apparent differences | approximately twofold more | showed sensitivity to the drug | – | – | – |
| CCC(CC)[C@H](NC(C)=O)[C@@H]1[C@H](O)[C@@H](C(=O)O)C[C@H]1N=C(N)N [Peramivir, peramivir] | – | – | – | approximately twofold more sensitive | no apparent differences | – | – | 0·08 (1) fold | fourfold more sensitive | threefold more sensitive |
| CC(=O)N[C@H]1[C@H]([C@H](O)[C@H](O)CO)OC(C(=O)O)=C[C@@H]1N=C(N)N [Zanamivir, zanamivir] | showed sensitivity to the drug | – | all showed sensitivity to the drug | approximately twofold more sensitive | no apparent differences | – | – | – | – | – |
